Source: the NIST ThermoML archive (doi:10.1016/j.tca.2015.02.020)
Numbers after ± are expanded uncertainties.

Assay: molar heat capacity at constant pressure; xn = mol fraction of the nth substance listed
Conditions: 101 kPa, Liquid, Small sample (50 mg) DSC

NCCCO [3-amino-1-propanol] + O
molar heat capacity at constant pressure (207.56 K, x1 = 0.16): 73.85 ± 15 J/K/mol | molar heat capacity at constant pressure (207.57 K, x1 = 0.26): 81.82 ± 16 J/K/mol | molar heat capacity at constant pressure (208.04 K, x1 = 0.68): 129.03 ± 26 J/K/mol | molar heat capacity at constant pressure (209.45 K, x1 = 0.19): 75.33 ± 15 J/K/mol | molar heat capacity at constant pressure (209.97 K, x1 = 0.68): 142.1 ± 6.3 J/K/mol | molar heat capacity at constant pressure (210.91 K, x1 = 0.19): 78.22 ± 3.5 J/K/mol | molar heat capacity at constant pressure (211.07 K, x1 = 0.26): 88.06 ± 3.6 J/K/mol | molar heat capacity at constant pressure (212.29 K, x1 = 0.16): 75.21 ± 15 J/K/mol | molar heat capacity at constant pressure (212.29 K, x1 = 0.26): 82.81 ± 17 J/K/mol | molar heat capacity at constant pressure (212.78 K, x1 = 0.68): 130.16 ± 26 J/K/mol | molar heat capacity at constant pressure (213.28 K, x1 = 0.68): 142.67 ± 6.3 J/K/mol | molar heat capacity at constant pressure (214.19 K, x1 = 0.19): 76.49 ± 15 J/K/mol | molar heat capacity at constant pressure (214.23 K, x1 = 0.19): 79.09 ± 3.5 J/K/mol | molar heat capacity at constant pressure (214.38 K, x1 = 0.26): 89.05 ± 3.9 J/K/mol | molar heat capacity at constant pressure (217.03 K, x1 = 0.16): 76.56 ± 15 J/K/mol | molar heat capacity at constant pressure (217.04 K, x1 = 0.26): 84.12 ± 17 J/K/mol | molar heat capacity at constant pressure (217.51 K, x1 = 0.68): 131.3 ± 26 J/K/mol | molar heat capacity at constant pressure (218.93 K, x1 = 0.19): 78.22 ± 16 J/K/mol | molar heat capacity at constant pressure (220.86 K, x1 = 0.19): 81.11 ± 3.5 J/K/mol | molar heat capacity at constant pressure (221.02 K, x1 = 0.26): 90.36 ± 3.9 J/K/mol | molar heat capacity at constant pressure (221.77 K, x1 = 0.16): 78.19 ± 16 J/K/mol | molar heat capacity at constant pressure (221.77 K, x1 = 0.26): 85.11 ± 17 J/K/mol | molar heat capacity at constant pressure (222.25 K, x1 = 0.68): 133 ± 27 J/K/mol | molar heat capacity at constant pressure (223.67 K, x1 = 0.19): 79.95 ± 16 J/K/mol | molar heat capacity at constant pressure (224.18 K, x1 = 0.19): 83.13 ± 3.5 J/K/mol | molar heat capacity at constant pressure (224.35 K, x1 = 0.26): 91.35 ± 3.9 J/K/mol | molar heat capacity at constant pressure (226.51 K, x1 = 0.16): 79.55 ± 16 J/K/mol | molar heat capacity at constant pressure (226.51 K, x1 = 0.26): 86.42 ± 17 J/K/mol | molar heat capacity at constant pressure (226.99 K, x1 = 0.68): 133.57 ± 27 J/K/mol | molar heat capacity at constant pressure (228.4 K, x1 = 0.19): 81.39 ± 16 J/K/mol | molar heat capacity at constant pressure (230.81 K, x1 = 0.19): 87.46 ± 3.8 J/K/mol | molar heat capacity at constant pressure (230.97 K, x1 = 0.26): 93.32 ± 3.9 J/K/mol | molar heat capacity at constant pressure (231.25 K, x1 = 0.16): 81.18 ± 16 J/K/mol | molar heat capacity at constant pressure (231.25 K, x1 = 0.26): 88.06 ± 18 J/K/mol | molar heat capacity at constant pressure (231.73 K, x1 = 0.68): 134.71 ± 27 J/K/mol | molar heat capacity at constant pressure (233.15 K, x1 = 0.19): 82.84 ± 17 J/K/mol | molar heat capacity at constant pressure (234.29 K, x1 = 0.26): 94.31 ± 3.9 J/K/mol | molar heat capacity at constant pressure (235.99 K, x1 = 0.16): 82.54 ± 17 J/K/mol | molar heat capacity at constant pressure (235.99 K, x1 = 0.26): 89.71 ± 18 J/K/mol | molar heat capacity at constant pressure (236.47 K, x1 = 0.68): 135.85 ± 27 J/K/mol | molar heat capacity at constant pressure (237.88 K, x1 = 0.19): 84.28 ± 17 J/K/mol | molar heat capacity at constant pressure (240.73 K, x1 = 0.16): 83.89 ± 17 J/K/mol | molar heat capacity at constant pressure (240.73 K, x1 = 0.26): 91.02 ± 18 J/K/mol | molar heat capacity at constant pressure (240.77 K, x1 = 0.19): 89.19 ± 3.8 J/K/mol | molar heat capacity at constant pressure (240.93 K, x1 = 0.26): 96.61 ± 4.3 J/K/mol | molar heat capacity at constant pressure (241.21 K, x1 = 0.68): 137.55 ± 28 J/K/mol | molar heat capacity at constant pressure (242.63 K, x1 = 0.19): 85.72 ± 17 J/K/mol | molar heat capacity at constant pressure (244.1 K, x1 = 0.19): 90.63 ± 3.8 J/K/mol | molar heat capacity at constant pressure (244.25 K, x1 = 0.26): 97.92 ± 4.3 J/K/mol | molar heat capacity at constant pressure (245.48 K, x1 = 0.16): 85.52 ± 17 J/K/mol | molar heat capacity at constant pressure (245.48 K, x1 = 0.26): 92.66 ± 19 J/K/mol | molar heat capacity at constant pressure (245.96 K, x1 = 0.68): 138.69 ± 28 J/K/mol | molar heat capacity at constant pressure (247.38 K, x1 = 0.19): 87.17 ± 18 J/K/mol | molar heat capacity at constant pressure (249.79 K, x1 = 0.16): 90.14 ± 3.8 J/K/mol | molar heat capacity at constant pressure (250.23 K, x1 = 0.16): 86.88 ± 17 J/K/mol | molar heat capacity at constant pressure (250.23 K, x1 = 0.26): 94.31 ± 19 J/K/mol | molar heat capacity at constant pressure (250.71 K, x1 = 0.68): 140.39 ± 28 J/K/mol | molar heat capacity at constant pressure (250.75 K, x1 = 0.19): 93.23 ± 4 J/K/mol | molar heat capacity at constant pressure (250.9 K, x1 = 0.26): 100.22 ± 4.3 J/K/mol | molar heat capacity at constant pressure (252.13 K, x1 = 0.19): 88.61 ± 18 J/K/mol | molar heat capacity at constant pressure (253.11 K, x1 = 0.16): 91.5 ± 3.8 J/K/mol | molar heat capacity at constant pressure (254.07 K, x1 = 0.19): 94.09 ± 4 J/K/mol | molar heat capacity at constant pressure (254.23 K, x1 = 0.26): 101.21 ± 4.3 J/K/mol | molar heat capacity at constant pressure (254.97 K, x1 = 0.16): 88.24 ± 18 J/K/mol | molar heat capacity at constant pressure (254.98 K, x1 = 0.26): 95.95 ± 19 J/K/mol | molar heat capacity at constant pressure (255.46 K, x1 = 0.68): 142.1 ± 28 J/K/mol | molar heat capacity at constant pressure (256.88 K, x1 = 0.19): 90.05 ± 18 J/K/mol | molar heat capacity at constant pressure (259.73 K, x1 = 0.16): 89.32 ± 18 J/K/mol | molar heat capacity at constant pressure (259.73 K, x1 = 0.26): 97.59 ± 20 J/K/mol | molar heat capacity at constant pressure (259.77 K, x1 = 0.16): 93.94 ± 4.1 J/K/mol | molar heat capacity at constant pressure (260.2 K, x1 = 0.68): 143.8 ± 29 J/K/mol | molar heat capacity at constant pressure (260.72 K, x1 = 0.19): 96.4 ± 4 J/K/mol | molar heat capacity at constant pressure (260.88 K, x1 = 0.26): 103.84 ± 4.3 J/K/mol | molar heat capacity at constant pressure (261.62 K, x1 = 0.19): 91.5 ± 18 J/K/mol | molar heat capacity at constant pressure (263.1 K, x1 = 0.16): 95.03 ± 4.1 J/K/mol | molar heat capacity at constant pressure (264.05 K, x1 = 0.19): 97.56 ± 4 J/K/mol | molar heat capacity at constant pressure (264.21 K, x1 = 0.26): 104.82 ± 4.6 J/K/mol | molar heat capacity at constant pressure (264.47 K, x1 = 0.16): 90.68 ± 18 J/K/mol | molar heat capacity at constant pressure (264.48 K, x1 = 0.26): 99.24 ± 20 J/K/mol | molar heat capacity at constant pressure (264.96 K, x1 = 0.68): 146.08 ± 30 J/K/mol | molar heat capacity at constant pressure (266.1 K, x1 = 0.16): 96.11 ± 4.1 J/K/mol | molar heat capacity at constant pressure (266.1 K, x1 = 0.19): 98.13 ± 4 J/K/mol | molar heat capacity at constant pressure (266.1 K, x1 = 0.26): 105.48 ± 4.6 J/K/mol | molar heat capacity at constant pressure (266.38 K, x1 = 0.19): 92.94 ± 19 J/K/mol | molar heat capacity at constant pressure (269.23 K, x1 = 0.16): 91.77 ± 18 J/K/mol | molar heat capacity at constant pressure (269.23 K, x1 = 0.26): 100.55 ± 20 J/K/mol | molar heat capacity at constant pressure (269.72 K, x1 = 0.68): 147.21 ± 30 J/K/mol | molar heat capacity at constant pressure (269.76 K, x1 = 0.16): 97.2 ± 4.1 J/K/mol | molar heat capacity at constant pressure (269.76 K, x1 = 0.68): 158.01 ± 6.8 J/K/mol | molar heat capacity at constant pressure (270.7 K, x1 = 0.19): 99.29 ± 4.3 J/K/mol | molar heat capacity at constant pressure (270.87 K, x1 = 0.26): 106.79 ± 4.6 J/K/mol | molar heat capacity at constant pressure (271.14 K, x1 = 0.19): 94.38 ± 19 J/K/mol | molar heat capacity at constant pressure (273.09 K, x1 = 0.16): 98.01 ± 4.1 J/K/mol | molar heat capacity at constant pressure (273.1 K, x1 = 0.68): 156.88 ± 6.8 J/K/mol | molar heat capacity at constant pressure (274.02 K, x1 = 0.16): 92.85 ± 19 J/K/mol | molar heat capacity at constant pressure (274.02 K, x1 = 0.26): 102.19 ± 20 J/K/mol | molar heat capacity at constant pressure (274.07 K, x1 = 0.19): 100.16 ± 4.3 J/K/mol | molar heat capacity at constant pressure (274.24 K, x1 = 0.26): 107.45 ± 4.6 J/K/mol | molar heat capacity at constant pressure (274.52 K, x1 = 0.68): 149.49 ± 30 J/K/mol | molar heat capacity at constant pressure (278.94 K, x1 = 0.16): 94.21 ± 19 J/K/mol | molar heat capacity at constant pressure (278.94 K, x1 = 0.19): 96.4 ± 19 J/K/mol | molar heat capacity at constant pressure (278.94 K, x1 = 0.26): 103.51 ± 21 J/K/mol | molar heat capacity at constant pressure (279.44 K, x1 = 0.68): 151.19 ± 30 J/K/mol | molar heat capacity at constant pressure (279.97 K, x1 = 0.16): 99.1 ± 4.3 J/K/mol | molar heat capacity at constant pressure (279.98 K, x1 = 0.68): 157.45 ± 6.8 J/K/mol | molar heat capacity at constant pressure (280.95 K, x1 = 0.19): 101.02 ± 4.3 J/K/mol | molar heat capacity at constant pressure (281.12 K, x1 = 0.26): 108.77 ± 4.6 J/K/mol | molar heat capacity at constant pressure (283.41 K, x1 = 0.16): 98.83 ± 4.1 J/K/mol | molar heat capacity at constant pressure (283.42 K, x1 = 0.68): 156.88 ± 6.8 J/K/mol | molar heat capacity at constant pressure (283.84 K, x1 = 0.16): 94.75 ± 19 J/K/mol | molar heat capacity at constant pressure (283.85 K, x1 = 0.19): 97.27 ± 20 J/K/mol | molar heat capacity at constant pressure (283.85 K, x1 = 0.26): 104.82 ± 21 J/K/mol | molar heat capacity at constant pressure (284.35 K, x1 = 0.68): 151.76 ± 31 J/K/mol | molar heat capacity at constant pressure (284.4 K, x1 = 0.19): 101.02 ± 4.3 J/K/mol | molar heat capacity at constant pressure (284.56 K, x1 = 0.26): 108.77 ± 4.6 J/K/mol
